Test results published in patent publication US10613105B2, “Competitive immunoassay test system for detecting a pyrogen” (FRAUNHOFER-GESELLSCHAFT ZUR FORDERUNG DER ANGEWANDTEN …, priority 2014, dated 2020).

Target: T1, TLR4 (Homo sapiens, UniProt O00206)
T1 construct: purchased Hölzel Diagnostik GmbH 10146-H08B-100; host or cells: baculovirus insect cells
Assay: Surface plasmon resonance spectroscopy (Biacore T200), TLR4 immobilized on NTA sensor chip via his-tag
Type: binding
Conditions: for Ka in 1/M / Kd: HBS-P+ with 50 μM EDTA, 20° C., 10 μL/min, 5 concentrations
Excerpt: The affinity of a ligand to its receptor describes the tendency thereof to enter into a bond with the receptor. The greater affinity, the greater the association constant Ka is. The strength of the receptor/ligand interaction can be determined experimentally with the aid of surface plasmon resonance spectroscopy (Biacore T200, GE Healthcare) and quantified by the so-called dissociation constant (Kd). Kd is thereby the reciprocal value of Ka, a thermodynamic value, which indicates which portion of the ligand is bound on average to the receptor protein and has the dimension of a concentration. The Biacore chip system is based on a glass slide with a gold film in a flow cell. TLR4 was immobilized on the NTA sensor chip via its his-tag in accordance with the manufacturer's protocol and the to-be-tested ligands, control compounds and LPS were passed over it dissolved in HBS-P+ with 50 μM EDTA at 20° C. with a flow rate of 10 μL/min in respectively 5 concentrations. The bond with TLR4 is measured as a change in the refractive index in the flow cell as compared to a reference cell as a response difference in RU. 1 RU corresponds thereby to 1 pg of bound ligand. After ligand injection, buffer is used for rinsing in order to ideally recreate the initial state, complete disassociation of the ligand.

T1 sequence (O00206 24-631 limits assumed): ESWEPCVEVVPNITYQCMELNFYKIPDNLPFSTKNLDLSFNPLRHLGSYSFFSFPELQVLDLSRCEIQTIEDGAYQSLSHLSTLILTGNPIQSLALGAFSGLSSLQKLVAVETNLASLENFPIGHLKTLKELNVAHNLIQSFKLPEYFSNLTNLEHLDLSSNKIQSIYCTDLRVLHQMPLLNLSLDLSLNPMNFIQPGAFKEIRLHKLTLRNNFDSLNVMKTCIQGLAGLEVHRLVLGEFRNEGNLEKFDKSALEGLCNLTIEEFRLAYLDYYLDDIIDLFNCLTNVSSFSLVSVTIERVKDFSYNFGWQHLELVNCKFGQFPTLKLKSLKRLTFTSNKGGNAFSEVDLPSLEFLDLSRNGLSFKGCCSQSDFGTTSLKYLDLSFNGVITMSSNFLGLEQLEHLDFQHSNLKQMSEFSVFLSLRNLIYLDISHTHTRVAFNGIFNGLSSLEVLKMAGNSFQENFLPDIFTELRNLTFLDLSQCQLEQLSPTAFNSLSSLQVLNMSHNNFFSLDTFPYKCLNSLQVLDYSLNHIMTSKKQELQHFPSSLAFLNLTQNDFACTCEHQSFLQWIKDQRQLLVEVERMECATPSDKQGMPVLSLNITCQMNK

Structure (SMILES)	Ka in 1/M	Kd	reduction of binding affinity for TLR4 by the TAMRA labeling (T5635346 with vs without TAMRA labeling)
Cc1ccc(C(=O)N2CCOCC2)c(O)c1 [T5635346, (2-hydroxy-4-methylphenyl)-morpholin-4-ylmethanone]	4,135,649 1/M	242 nM	40 fold
CC(C)CN1CCOC(CNC(=O)Nc2ccc3c(c2)OCO3)C1 (centres unmarked) [T5874283, 1-(1,3-benzodioxol-5-yl)-3-[[4-(2-methylpropyl)morpholin-2-yl]methyl]urea]	9,803,922 1/M	102 nM	
